We go through 29 molecules from patent US20120202258A1, “LIGE-TYPE TRANSFORMANTS FOR BIOCONVERSION OF LIGNIN-DERIVED COMPOUNDS” (priority 2010, published 2012).

The labels stand for the following.
B1: LigF: S. paucimobilis beta-etherase, positive control polypeptide (protein)
chain: MTLKLYSFGPGANSLKPLATLYEKGLEFEQVFVDPSKFEQHSDWFKKINPRGQVPALWHDGKVVTESTVICEYLEDVFPESGNSLRPADPFKRAEMRVWTKWVDEYFCWCVSTIGWAFGIKAIAQKMSDEEFEEHINKNVPIPEQQLKWRRARNGFPQEMLDEEFRKVGVSVARLEETLSKQDYLVDTGYSLADICNFAIANGLQRPGGFFGDYVNQEKTPGLCAWLDRINARPAIKEMFEKSKREDLLKRQNEKVA
B2: ligE: S. paucimobilis beta-etherase, positive control polypeptide (protein)
chain: MARNNTITLYDLQLESGCTISPYVWRTKYALKHKGFDIDIVPGGFTGILERTGGRSERVPVIVDDGEWVLDSWVIAEYLDEKYPDRPMLFEGPTQKNLMKFLDNWLWSTAVGPWFRCYILDYHDLSLPQDRDYVRWSREQWFLGGQRLEDVQAGREDRLPLVPPTLEPFRRILAETKWLGGDQPNFADYSALAVFLWTASVARTPPLTEDDPLRDWLDRGFDLFDGLGRHPGMNPLFGLKLREGDPEPFVRQTGPAGAGGQALNKGPQTTKMPPRVAEKAD
B3: LigG: S. paucimobilis glutathione-eliminating glutathione S transferase gene product (protein)
chain: MSGASARSLGKGSAPPGPVPEGQIRVYSMRFCPFAQRTLMVLKAKGIRHEIININLKNKPEWFFEKNPFGLVPVLENTQGHLITESVITCEYLDEAYPEKKLFPDDPYEKACQKMTFELFSKVPSLVTSFIRAKRKEDHPGIKEELKKEFSKLEEAMANKRTAFFGGNSLSMIDYLIWPWFQRLEALELNECIDHTPKLKLWMATMQEDPVASSHFIDAKTYRDYLSLYLQDSPEACDYGL
B4: ligE1: N. aromaticivorans putative beta-etherase polypeptide, glutathione S-transferase-like protein, expressed in E. coli (protein)
chain: MAANNTITFYDLALSTGATISPFVWATKYALKHKGFDLDVVPGGFTGILERTGGKTERLPAIVDDGEFVLDSWGIVEYLDAKYPDRPVLIPHESVAATLKALDNWFWNAAVGPWMFCFCQDYRDLSLPQDHEYVTHSREKMLGRKLEEVQAGREERLPKISAALEPLRAALAQHQWLGGSSPNYADYRIMGGILFTASVCKTPVLANDDPLRDWIERCLDLYGGLGRHPGLFPLFGLEQREGDPDLFNRAAGQGGIYKRNTGPESTRAETQRITEGMKK
B5: ABD26530.1: N. aromaticivorans putative beta-etherase polypeptide (protein)
chain: MVIPLGEDNTIMLKLYSFGPAANSMKPLLTVFEKGLDVEKHRLDPAKFEHHTDWFKAINPRGQVPALVDGDKVVTESTVICEYLEDEYPTEVALRPADSFGKAQMRIWTKWVDEYFCWCVSTIGWHRYVGNMVKSLSDAEFEEKVKAIPVIEQQVKWRRAREGFPQDMLDEEMRKIAYSVRKLDDHLADHEWLVPGQYTLADICNFAIANGMQFGFAELVNKQDTPHLVRWIEQINERPAVKQMFAQVELEKLGPRE
B6: LigF2: N. aromaticivorans putative beta-etherase polypeptide, glutathione S-transferase-like protein (protein)
chain: MALKYYHAEPLANSLKSMVPLKEKGLAYESIYVDLHKFEQHQPWFTAINPEGQVPVLDHDGTIITHTTVINEYLEDAFPDAQPADAPLRPRDPVGAARMRYWNKFIDEHVMNYVSMHGWHRMVGVIARNIASGDFEKLLESIPLPDQRKKWATARSGFSEADLANATAKIEYALDKVEKQLGETKWLAGDTYTLADINFYSHCGAMVERMFPEMEVARRAPRLCEWRDRVAARPAVAEALKSEDRTAPGLRVWSGEVR
B7: ABD27309.1: N. aromaticivorans putative beta-etherase polypeptide (protein)
chain: MDEVSLYHWEPNANSGKPMLALMEKGVPFSSHYIDMLQFDQHKPEYLAINPQGTIPAMTHNGQVLTESTAIMEYVNDRFDGPDLMPADAQDRWRVRWWMKFMDQWLGPSFSMIGWSVFVGPMVRQRDPAELAAAIDRIPLPERRTAWRKAINGDFSESEMAESRRRVGLGIAKLEEELGKRPYVGSNQYSLADINIFNSTYSLPISQPDLAGKDRTPNIMRWLKRVYTREAVKKTWAMGKTDLAHRYGLIMAEIEG

Test system in the first data set: not given
Test: not given
Particulars: FIG. 2B, S. paucimobilis LigDFEG gene cluster; result in words; cited from earlier work.
In the case of “LigD: S. paucimobilis C alpha-dehydrogenase gene product [reference compound]”, the “enzyme activity of gene product” value is on record as “Cα-dehydrogenase activity”.

Consider B1, for which the “enzyme activity of gene product” value is reported as “β-etherase activity”.

For B2, the “enzyme activity of gene product” value is on record as “β-etherase activity”.

As for B3, the “enzyme activity of gene product” value is listed as “glutathione lyase activity”.

Test system in the next data set: not listed separately
The data set is described as follows: in vitro beta-etherase biochemical assay on fluorescent substrate MUAV (4MU fluorescence), clarified E. coli cell extracts. As to conditions: 0.1 mM MUAV substrate. From the text:
The model substrate synthesis 150 for use in the biochemical screening for selective activity can be outsourced through a contract research organization (CRO). The enzyme discovery effort can initially be focused on identifying potential beta-etherase candidate genes identified through bioinformatic methods. […] The fluorescent substrate α-O-(β-methylumbelliferyl) acetovanillone (MUAV), for example, can be used in in vitro assays to identify beta-etherase function (Acme Biosciences, Mt. View, Calif.). The formation of 4 methylumbelliferone (4MU) upon hydrolysis of the aryl ether bond can be monitored by fluorescence, for example, at λex=365 nm and λem=450 nm (or 460 nm).
The enzyme screening 155 is done to identify novel etherases 160. […] Expression of the beta-etherase genes can be done in 5 ml or 25 ml samples of the recombinant E. coli strains in LB medium using induction with IPTG. Following induction, and cell harvest, cell pellets can be be lysed using the BPER (Invitrogen) cell lysis system. […] The formation of 4 methylumbelliferone (4MU) upon hydrolysis of the aryl ether bond in MUAV can be monitored by fluorescence at λex=365 nm and λem=460 nm, and can provide quantitative measurement of beta-etherase function. Cell extracts of E. coli transformed with the S. paucimobilis ligE and ligF genes can be the assay positive controls. Test or unknown samples can include, for example, E. coli strains expressing putative beta-etherase genes from N. aromaticovorans.
This example describes a method for gene expression in E. coli, as well as beta-etherase biochemical assays. Expression of known and putative beta-etherase genes was performed using 5 ml cultures of the recombinant E. coli strains described herein in Luria Broth medium by induction of gene expression using isopropylthiogalactoside (IPTG) to a final concentration of 0.1 mM. Following induction, and cell harvest, the cells were disrupted using either sonication or the BPER (Invitrogen) cell lysis system.
In vitro reactions were performed in a total volume of 200 ul and contained: 25 mM TrisHCl pH 7.5; 0.5 mM dithiothreitol; 1 mM glutathione; 0.05 mM or 0.1 mM MUAV; 10 ul of clarified cell extract used to initiate the reactions. Following incubation for 2.5 hours at room temperature, a 50 ul sample of the reactions was terminated using 150 uL of 300 mM glycine/NaOH buffer pH 9. The formation of 4 methylumbelliferone (4MU) upon hydrolysis of the aryl ether bond was monitored by the increase in fluorescence at λex=360 nm and λem=450 nm using a Spectramax UV/visible/fluorescent spectrophotometer.
The total protein concentrations of the cell lysates were determined using the BCA reagent system for protein quantification (Pierce).
Regarding B4, the “fold more efficient than S. paucimobilis ligE beta-etherase enzyme” value is listed as “approximately 75 fold”.

Staying with this data set, now noted: MUAV substrate; result in words.
With B5, the beta-etherase activity entry is on record as “beta-etherase activity”.

Consider B6, for which the beta-etherase activity entry was “beta-etherase activity”.

As to B7, the beta-etherase activity result is listed as “beta-etherase activity”.

B4: the beta-etherase activity entry is reported as “beta-etherase activity”.

The subject of a further data set is Saccharomyces cerevisiae.
Test: not given
Particulars: result in words; cited from earlier work.
Consider `COc1ccc(C=O)cc1OC` [Veratraldehyde], for which the “antifungal activities against the yeast Saccharomyces cerevisiae” value (“antifungal activities” below) is listed as “significant antifungal activities”.

Regarding `O=C(O)C=Cc1ccccc1` [cinnamic acid], the “antifungal activities” value is recorded as “significant antifungal activities”.

`O=C(O)/C=C/c1cccc(O)c1` [m-coumaric acid]: the “antifungal activities” value is reported as “significant antifungal activities”.

On to `O=C(O)/C=C/c1ccccc1O` [o-coumaric acid], for which the “antifungal activities” value is “significant antifungal activities”.

In the case of `O=C(O)/C=C/c1ccc(O)cc1` [p-coumaric acid], the “antifungal activities” value was “significant antifungal activities”.

Regarding `COc1cc(C(=O)O)ccc1O` [vanillic acid], the “antifungal activities” value is on record as “significant antifungal activities”.

Turning to `COc1cc(CCC(C)=O)ccc1O` [vanillylacetone], the “antifungal activities” value is given as “significant antifungal activities”.

Another data set relates to Escherichia coli.
Test: not given
As to conditions: demonstrated; result in words; cited from earlier work.
As to `O=Cc1ccc(O)c(O)c1O` [2,3,4-trihydroxybenzaldehyde], the “antibacterial activity against Escherichia coli” value was “antibacterial activity”.

On to `O=Cc1cccc(O)c1O` [2,3-dihydroxybenzaldehyde], for which the “antibacterial activity against Escherichia coli” value is “antibacterial activity”.

Take `O=Cc1c(O)cc(O)cc1O` [2,4,6-trihydroxybenzaldehyde]: the “antibacterial activity against Escherichia coli” value was “antibacterial activity”.

For the molecule `O=Cc1ccc(O)cc1O` [2,4-dihydroxybenzaldehyde], the “antibacterial activity against Escherichia coli” value is given as “antibacterial activity”.

As for `O=Cc1cc(O)ccc1O` [2,5-dihydroxybenzaldehyde], the “antibacterial activity against Escherichia coli” value is on record as “antibacterial activity”.

On to `COc1cccc(C=O)c1O` [2-hydroxy-3-methoxybenzaldehyde], for which the “antibacterial activity against Escherichia coli” value was “antibacterial activity”.

Regarding `COc1ccc(O)c(C=O)c1` [2-hydroxy-5-methoxybenzaldehyde], the “antibacterial activity against Escherichia coli” value was “antibacterial activity”.

For `O=Cc1ccccc1O` [2-hydroxybenzaldehyde], the “antibacterial activity against Escherichia coli” value is on record as “antibacterial activity”.

As to `COc1cc(O)cc(OC)c1C=O` [4-hydroxy-2,6-dimethoxybenzaldehyde], the “antibacterial activity against Escherichia coli” value is on record as “antibacterial activity”.

Staying with this data set, now noted: known; result in words; cited from earlier work.
Consider `O=Cc1ccc(O)cc1` [4-hydroxybenzaldehyde], for which the “antimicrobial activity against Escherichia coli” value is reported as “antimicrobial activity”.

On to `O=Cc1ccc(CO)o1` [5-hydroxymethylfurfural], for which the “antimicrobial activity against Escherichia coli” value is reported as “antimicrobial activity”.

Take `O=Cc1ccco1` [furfural]: the “antimicrobial activity against Escherichia coli” value is reported as “antimicrobial activity”.

`COc1cc(C=O)cc(OC)c1O` [syringaldehyde]: the “antimicrobial activity against Escherichia coli” value is recorded as “antimicrobial activity”.

Turning to `COc1cc(C=O)ccc1O` [vanillin], the “antimicrobial activity against Escherichia coli” value was “antimicrobial activity”.
